Experimental data reported in the RepoRT retention time repository.

Assay: HILIC, HILICON iHILIC-(P) Classic, HILIC, PEEK, 50 × 2.1 mm, 5 µm, 45 °C, 0.12 mL/min, estimated dead time 0.92 min; A: water + 20 mM ammonium carbonate; B: acetonitrile; gradient (min/%B) 0/90 1/90 21/20 21.5/20 26.5/20 27.5/90 35/90
Details: stereoisomer not certain

Row | Structure (SMILES) | LC retention time
1 | Nc1ncnc2c1ncn2C1OC(COP(=O)(O)OP(=O)(O)O)C(O)C1O (stereo not drawn) [ADP] | 12.2 min
2 | Nc1ncnc2c1ncn2C1OC(COP(=O)(O)O)C(O)C1O (stereo not drawn) [AMP] | 8.49 min
3 | Nc1ncnc2c1ncn2C1OC(COP(=O)(O)OP(=O)(O)OP(=O)(O)O)C(O)C1O (stereo not drawn) [ATP] | 13.6 min
4 | CC(=O)SCCNC(=O)CCNC(=O)C(O)C(C)(C)COP(=O)(O)OP(=O)(O)OCC1OC(n2cnc3c(N)ncnc32)C(O)C1OP(=O)(O)O (stereo not drawn) [Acetyl-CoA] | 8.69 min
5 | Nc1ncnc2nc[nH]c12 [Adenine] | 3.42 min
6 | Nc1ncnc2c1ncn2C1OC(CO)C(O)C1O (stereo not drawn) [Adenosine] | 3.57 min
7 | O=C1OC(C(O)CO)C(O)=C1O (stereo not drawn) [Ascorbic Acid] | 9.37 min
8 | NC(=O)CC(N)C(=O)O (stereo not drawn) [Asparagine] | 10.8 min
9 | O=C(O)CCCCC1SCC2NC(=O)NC21 (stereo not drawn) [Biotin] | 3.35 min
10 | Nc1ccn(C2OC(COP(=O)(O)OP(=O)(O)O)C(O)C2O)c(=O)n1 (stereo not drawn) [CDP] | 13.2 min
11 | Nc1ccn(C2OC(COP(=O)(O)O)C(O)C2O)c(=O)n1 (stereo not drawn) [CMP] | 10.9 min
12 | O=C(O)CC(O)(CC(=O)O)C(=O)O [Citric acid] | 16.4 min
13 | NC(CSSCC(N)C(=O)O)C(=O)O (stereo not drawn) [Cystine] | 11.6 min
14 | Nc1ccn(C2OC(CO)C(O)C2O)c(=O)n1 (stereo not drawn) [Cytidine] | 5.92 min
15 | Nc1nc2ncc(CNc3ccc(C(=O)NC(CCC(=O)O)C(=O)O)cc3)nc2c(=O)[nH]1 (stereo not drawn) [Folic Acid] | 14.3 min
16 | O=P(O)(O)OCC1OC(O)(COP(=O)(O)O)C(O)C1O (stereo not drawn) [Fructose-1,6-bisphosphate] | 16.3 min
17 | Nc1nc2c(ncn2C2OC(COP(=O)(O)OP(=O)(O)O)C(O)C2O)c(=O)[nH]1 (stereo not drawn) [GDP] | 15.2 min
18 | Nc1nc2c(ncn2C2OC(COP(=O)(O)O)C(O)C2O)c(=O)[nH]1 (stereo not drawn) [GMP] | 14.2 min
19 | NC(CCC(=O)NC(CS)C(=O)NCC(=O)O)C(=O)O (stereo not drawn) [GSH] | 8.5 min
20 | NC(CCC(=O)NC(CSSCC(NC(=O)CCC(N)C(=O)O)C(=O)NCC(=O)O)C(=O)NCC(=O)O)C(=O)O (stereo not drawn) [GSSG] | 15.3 min

Row | Structure (SMILES) | LC retention time
21 | Nc1nc2c(ncn2C2OC(COP(=O)(O)OP(=O)(O)OP(=O)(O)O)C(O)C2O)c(=O)[nH]1 (stereo not drawn) [GTP] | 17.1 min
22 | NC(CCC(=O)O)C(=O)O (stereo not drawn) [Glutamic acid] | 9.69 min
23 | NC(=O)CCC(N)C(=O)O (stereo not drawn) [Glutamine] | 8.36 min
24 | O=P(O)(O)OCC(O)CO (stereo not drawn) [Glycerol-3-phosphate] | 10.9 min
25 | Nc1nc2c(ncn2C2OC(CO)C(O)C2O)c(=O)[nH]1 (stereo not drawn) [Guanosine] | 6.69 min
26 | O=C(O)CC(C(=O)O)C(O)C(=O)O (stereo not drawn) [Isocitric acid] | 15.9 min
27 | CCC(C)C(N)C(=O)O (stereo not drawn) [Isoleucine] | 5.72 min
28 | CC(O)C(=O)O (stereo not drawn) [Lactic Acid] | 2.81 min
29 | CC(C)CC(N)C(=O)O (stereo not drawn) [Leucine] | 5.45 min
30 | NCCCCC(N)C(=O)O (stereo not drawn) [Lysine] | 18.8 min
31 | O=C(O)CC(O)C(=O)O (stereo not drawn) [Malic Acid] | 13.1 min
32 | O=C(O)CC(=O)O [Malonic Acid] | 9.39 min
33 | CSCCC(N)C(=O)O (stereo not drawn) [Methionine] | 5.91 min
34 | CC(=O)NC(CC(=O)O)C(=O)O (stereo not drawn) [N-Acetylaspartic acid] | 9.96 min
35 | NC(=O)C1=CN(C2OC(COP(=O)(O)OP(=O)(O)OCC3OC(n4cnc5c(N)ncnc54)C(O)C3O)C(O)C2O)C=CC1 (stereo not drawn) [NADH] | 9.33 min
36 | NC(=O)C1=CN(C2OC(COP(=O)(O)OP(=O)(O)OCC3OC(n4cnc5c(N)ncnc54)C(OP(=O)(O)O)C3O)C(O)C2O)C=CC1 (stereo not drawn) [NADPH] | 16.8 min
37 | NC(=O)c1ccc[n+](C2OC(COP(=O)(O)OP(=O)(O)OCC3OC(n4cnc5c(N)ncnc54)C(OP(=O)(O)O)C3O)C(O)C2O)c1 (stereo not drawn) [NADP] | 13.5 min
38 | NC(=O)c1ccc[n+](C2OC(COP(=O)(O)OP(=O)(O)OCC3OC(n4cnc5c(N)ncnc54)C(O)C3O)C(O)C2O)c1 (stereo not drawn) [NAD] | 8.93 min
39 | NC(=O)c1ccc[n+](C2OC(COP(=O)([O-])O)C(O)C2O)c1 (stereo not drawn) [NMN] | 9.43 min
40 | O=C(O)c1cccnc1 [Nicotinic acid] | 1.66 min

Row | Structure (SMILES) | LC retention time
41 | NCCCC(N)C(=O)O (stereo not drawn) [Ornithine] | 18.1 min
42 | C=C(OP(=O)(O)O)C(=O)O [PEP] | 13.7 min
43 | NC(Cc1ccccc1)C(=O)O (stereo not drawn) [Phenylalanine] | 4.97 min
44 | O=C(O)C(CO)OP(=O)(O)O (stereo not drawn) [Phosphoglyceric acid A] | 13.5 min
45 | O=C(O)C1CCCN1 (stereo not drawn) [Proline] | 6.81 min
46 | O=C(O)C1(O)CC(O)C(O)C(O)C1 (stereo not drawn) [Quinic Acid] | 6.43 min
47 | NC(CO)C(=O)O (stereo not drawn) [Serine] | 8.59 min
48 | O=C(O)CCC(=O)O [Succinic Acid] | 11.8 min
49 | Cc1ncc(C[n+]2csc(CCO)c2C)c(N)n1 [Thiamine] | 13 min
50 | CC(O)C(N)C(=O)O (stereo not drawn) [Threonine] | 8.21 min
51 | O=C(CO)COP(=O)(O)O [Triose phosphate] | 11.3 min
52 | NC(Cc1c[nH]c2ccccc12)C(=O)O (stereo not drawn) [Tryptophan] | 6.18 min
53 | NC(Cc1ccc(O)cc1)C(=O)O (stereo not drawn) [Tyrosine] | 6.98 min
54 | CC(=O)NC1C(OP(=O)(O)OP(=O)(O)OCC2OC(n3ccc(=O)[nH]c3=O)C(O)C2O)OC(CO)C(O)C1O (stereo not drawn) [UDP-GlcNAc] | 11.7 min
55 | O=c1ccn(C2OC(COP(=O)(O)OP(=O)(O)O)C(O)C2O)c(=O)[nH]1 (stereo not drawn) [UDP] | 12.2 min
56 | O=c1ccn(C2OC(COP(=O)(O)O)C(O)C2O)c(=O)[nH]1 (stereo not drawn) [UMP] | 9.52 min
57 | O=c1ccn(C2OC(COP(=O)(O)OP(=O)(O)OP(=O)(O)O)C(O)C2O)c(=O)[nH]1 (stereo not drawn) [UTP] | 14.3 min
58 | CC(C)C(N)C(=O)O (stereo not drawn) [Valine] | 6.71 min
